Assays:
[1] = once daily, three times per week; higher doses lethal; cited from earlier work
[2] = system: PC3 cells; experiment: Clonogenic survival assay; assay type: cell-based, human; conditions: 72 h treatment; for decrease of colony formation relative to control: 10 μM
Text: (§1) Other anti-angiogenic/anti-tumor agents that can be used in conjunction with the compounds, compositions, methods and combination therapy of the present invention include: SD-7784 (Pfizer, USA); cilengitide. […]

[3] = target: T1, thymidylate synthase (TS) (Homo sapiens, UniProt P04818); experiment: TS catalytic activity assay in treated PC3 cells; assay type: cell-based; conditions: 5-FU 10^−6 M
T1 construct: endogenous in cells; host or cells: PC3 (human prostate cancer cell line, ATCC)
Text: as §1

T1 sequence (P04818 2-313 limits assumed): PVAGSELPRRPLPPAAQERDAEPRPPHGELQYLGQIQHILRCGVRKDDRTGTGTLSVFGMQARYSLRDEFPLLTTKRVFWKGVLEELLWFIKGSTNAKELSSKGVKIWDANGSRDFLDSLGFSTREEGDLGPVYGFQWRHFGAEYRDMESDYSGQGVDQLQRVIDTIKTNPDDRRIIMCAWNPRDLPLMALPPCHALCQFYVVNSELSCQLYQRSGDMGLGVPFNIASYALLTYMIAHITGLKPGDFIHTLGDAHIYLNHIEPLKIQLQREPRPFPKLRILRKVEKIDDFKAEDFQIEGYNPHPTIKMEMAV

In the case of `O=c1[nH]cc(F)c(=O)[nH]1` [5-FU, 5-fluorouracil], the maximum tolerated dose [1] is given as 45 mg/kg/dose, the “PC3 cell colony formation” value ([2]; 1 μM) is given as “no effect” and the “decrease of colony formation relative to control” value [2] is given as < 50%. For the same compound, the “decrease of colony formation relative to control” value ([2]; listed as 5FU) was “less than 50%”, the “TS activity relative to control” value ([3]; 8 and 16 h) was “increased” and the TS activity ([3]; 48 h timepoint) was ~50 % control.
